# US9458141B2, “Low molecular weight thyroid stimulating hormone receptor (TSHR) agonists” (The United States of America, as represented by the …, priority 2008, dated 2016)
# Read-outs that look alike come from different tables or passages of the source.
# Target: T1, human TSHR (Homo sapiens, UniProt P16473)
# T1 construct: expressed in transfected cells
# Test: Homogeneous Time Resolved Fluorescence (HTRF) cAMP assay, TSHR cell line
# Type: cell-based
# Conditions: for AC50: HTRF cAMP, TSHR cell line, 30 minute incubation; for Maximum Activity compared to TSH: 100% activity = response of 30 mU/ml TSH, 0% = DMSO control, in %; for Emax: read-out: Maximum Activity compared to TSH, 100% activity = response of 30 mU/ml TSH, 0% = DMSO control; call rule not given here
# T1 sequence (P16473 21-764): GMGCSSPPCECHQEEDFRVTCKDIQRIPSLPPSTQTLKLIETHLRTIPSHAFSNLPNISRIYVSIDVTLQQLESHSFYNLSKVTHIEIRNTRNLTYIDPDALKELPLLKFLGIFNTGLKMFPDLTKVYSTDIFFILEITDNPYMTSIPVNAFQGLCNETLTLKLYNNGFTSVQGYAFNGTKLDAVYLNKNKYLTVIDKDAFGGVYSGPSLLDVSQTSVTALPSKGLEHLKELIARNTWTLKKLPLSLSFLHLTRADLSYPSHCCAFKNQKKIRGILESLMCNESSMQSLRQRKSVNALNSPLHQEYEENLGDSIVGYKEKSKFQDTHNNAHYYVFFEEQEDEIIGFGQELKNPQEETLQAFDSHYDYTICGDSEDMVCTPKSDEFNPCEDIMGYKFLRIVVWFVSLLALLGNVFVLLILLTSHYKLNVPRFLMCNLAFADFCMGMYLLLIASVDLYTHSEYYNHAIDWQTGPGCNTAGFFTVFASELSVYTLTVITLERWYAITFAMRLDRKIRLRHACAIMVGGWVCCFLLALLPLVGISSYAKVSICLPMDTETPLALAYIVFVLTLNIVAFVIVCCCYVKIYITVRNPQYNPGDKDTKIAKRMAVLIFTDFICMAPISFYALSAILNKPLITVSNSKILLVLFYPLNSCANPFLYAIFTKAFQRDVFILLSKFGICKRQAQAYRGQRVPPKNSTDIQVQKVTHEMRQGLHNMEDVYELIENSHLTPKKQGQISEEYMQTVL
AC50,Structure (SMILES),also measured
inactive,CC(=O)Nc1cccc(OCc2cccc(C3Nc4ccccc4C(=O)N3Cc3ccco3)c2)c1 (centres unmarked) [Structure 149],–
inactive,COc1ccc(C2Nc3ccccc3CN2Cc2ccco2)cc1COc1cccc(NC(C)=O)c1 (centres unmarked) [Structure 150],–
inactive,COc1ccc(C2Nc3ccccc3C(=O)N2Cc2ccco2)cc1COc1cccc(NC(C)=O)c1 (centres unmarked) [Structure 151],–
inactive,COc1ccc(C2Nc3ccccc3C(=O)N2Cc2ccccc2)cc1COc1ccc(F)cc1 (centres unmarked) [Structure 152],–
inactive,Nc1ccccc1C(=O)NCc1ccco1 [Structure 153],–
inactive,O=C(c1ccccc1O)N(Cc1ccco1)Cc1cccs1 [Structure 154],–
–,COc1ccc(-c2nc3ccc(NC(C)=O)cc3c(=O)n2Cc2cccc(Cl)c2)cc1COc1ccc(NC(C)=O)cc1 [Structure 155],Maximum Activity compared to TSH: 25.50; AC50 (read-out: AC50): 12.6 µM
inactive,COc1ccc(C2Nc3ccccc3C(=O)N2Cc2ccco2)cc1 (centres unmarked) [Structure 156],–
inactive,O=C1c2ccccc2NC(c2ccccc2O)N1Cc1ccccc1 (centres unmarked) [Structure 157],–
inactive,COc1ccc2c(c1OC)C(=O)N1c3ccccc3C(=O)N(Cc3ccco3)C21 (centres unmarked) [Structure 158],–
inactive,CC(=O)Nc1ccc(OCc2cccc(-c3nc4ccccc4c(=O)n3Cc3ccco3)c2)cc1 [Structure 159],–
–,COc1ccc(C(=O)C2C(=O)C(=O)N(Cc3ccco3)C2c2cccs2)cc1 (centres unmarked) [Structure 160],AC50 (read-out: AC50): 50.1 µM; Emax: 28%
inactive,COc1ccc(CN(Cc2ccccc2)C(C)=O)cc1COc1ccc(NC(C)=O)cc1 [Structure 161],–
inactive,COc1ccc(C2Nc3ccccc3C(=O)N2Cc2ccco2)cc1COc1c(C)cccc1C (centres unmarked) [Structure 162],–
inactive,COc1ccc(C2Nc3ccccc3C(=O)N2Cc2ccccc2)cc1Oc1ccc(NC(C)=O)cc1 (centres unmarked) [Structure 163],–
inactive,COc1ccc(C2Nc3ccccc3C(=O)N2Cc2ccccc2)cc1COc1cccc(C(F)(F)F)c1 (centres unmarked) [Structure 164],–
inactive,CC(=O)Nc1ccc(OCc2cccc(C3Nc4ccccc4C(=O)N3Cc3ccco3)c2)cc1 (centres unmarked) [Structure 165],–
inactive,COc1ccc(CN(Cc2ccccc2)C(=O)c2ccc(NC(C)=O)cc2)cc1COc1ccc(NC(C)=O)cc1 [Structure 166],–
–,COc1ccc(C(=O)N(Cc2ccccc2)Cc2ccccc2)cc1COc1ccc(NC(C)=O)cc1 [Structure 167],Maximum Activity compared to TSH: 24.50; AC50 (read-out: AC50): 14.1 µM
inactive,COc1ccc(C(=O)N(Cc2ccccc2)Cc2ccc(OC)c(COc3ccc(NC(C)=O)cc3)c2)c(O)c1 [Structure 168],–
–,COc1ccc(CN(Cc2ccccc2)C(=O)c2ccccc2O)cc1 [Structure 169],AC50 (read-out: AC50): 50.1 µM; Emax: 34%
inactive,COc1ccc(C2Nc3ccccc3C(=O)N2Cc2ccccc2)cc1COc1ccc(C#N)cc1 (centres unmarked) [Structure 170],–
inactive,O=C1CC(c2ccco2)CC2=C1C(c1cccnc1)n1nc(C(F)(F)F)nc1N2 (centres unmarked) [Structure 171],–
inactive,COc1ccc(C2Nc3ccccc3C(=O)N2Cc2ccccc2)cc1COc1ccccc1OC (centres unmarked) [Structure 172],–
–,COc1ccc(-c2nc3ccccc3c(=O)n2Cc2ccccc2)cc1CNc1ccc(NC(C)=O)cc1 [Structure 173],AC50 (read-out: AC50): 15.8 µM; Emax: 30%
inactive,O=C1CC(c2ccco2)CC2=C1C(c1ccc(O)cc1)n1nc(C(F)(F)F)nc1N2 (centres unmarked) [Structure 174],–
inactive,COc1ccc(C2Nc3ccccc3C(=O)N2Cc2ccc(C(C)(C)C)cc2)cc1COc1ccc(NC(C)=O)cc1 (centres unmarked) [Structure 175],–
–,CCC(=O)Nc1ccc(OCc2cc(C3Nc4ccccc4C(=O)N3Cc3ccccc3)ccc2OC)cc1 (centres unmarked) [Structure 177],AC50 (read-out: AC50): 5.62 µM; Emax: 29%
inactive,COc1ccc(C2Nc3ccccc3C(=O)N2Cc2ccco2)cc1 (centres unmarked) [Structure 178],–
